Data: patent publication US11459338B2, “Heterocyclic compounds as PRMT5 inhibitors” (JUBILANT EPISCRIBE LLC, priority 2018, dated 2022)

Key:
[1] = test system: Z-138 cells; experiment: Z-138 long term proliferation assay (Cell Titer Glo); type: cell-based; conditions: Homo sapiens, 192 h; Z-138 cells, cell viability, day 8; read-out: PRMT5 Z138 GI50 Day 8 μM
Experimental: A compound source plate was prepared by performing ten-point 3-fold dilution in DMSO, such that the final top concentration of the compound was 10 μM, and DMSO was 0.3%. The total volume of compounds added was 20 μL. The cells were incubated for 96 h at 37° C., 5% CO2. […] The cells were re-treated with the compounds and incubated for an additional four days. Cell viability was measured on both day 4 and day 8, by adding 25 μL of Cell Titer Glo reagent to an equal volume of cell suspension. Luminescence was read on a PerkinElmer Victor3 multiplate reader. The concentration of compound inhibiting cell viability by 50% was determined using a 4-parameter, variable slope fit of the normalized dose response curves.

[2] = molecular target: T1, PRMT5/MEP50 (Homo sapiens, UniProt O14744); experiment: PRMT5/MEP50 enzyme assay on peptide substrates (3H-SAM Flashplate); type: biochemical; conditions: PRMT5/MEP50 10 nM, H4 1-15aa peptide 100 nM, 3H-SAM 1 μM
T1 construct: Full-length human PRMT5 (NP_006100)
Description: General materials like S-adenocylmethionine (SAM), S-adenosylhomocysteine (SAH), Tris-HCl, DTT, […] (BSA) and Tween-20 were purchased from Sigma-Aldrich. 3H-SAM and 384-well streptavidin Flashplates were purchased from Perkin Elmer. Substrates that were used were Peptide representative of human Histone 4 residues 1-15 which was purchased from Rockland antibodies and assays.
PRMT5/MEP50 Enzyme assay on Peptide Substrates.
The assays were all performed in a buffer consisting of 50 mMTris-HCl, pH 8, 1 mM DTT, 0.01% BSA, 0.01% Tween-20, prepared on the day of use. Test compounds were diluted 3-fold in assay buffer (final DMSO concentration of 1%) and added into a 384-well OptiPlate (PerkinElmer, #6007290). A cocktail (10 μL) of PRMT5/MEP50 enzyme and the peptide was added to the wells. The compounds were allowed to incubate with PRMT5/MEP50 for 30 min at room temperature, then 5 μL of ^3H-SAM was added to initiate the reaction. The final concentrations of the components were as follows: PRMT5/MEP50-10 nM, H4, 1-15aa peptide-100 nM, ^3H-SAM-1 μM. The assays were stopped by the addition of 1 mM SAH. 25 μL of the reaction from the 384-well OptiPlate was then transferred to a 384-well Flashplate and the biotinylated peptides were allowed to bind to the streptavidin surface for at least 1 h, before being washed twice with 50 mMTris-HCl, pH 8, 0.1% Tween-20. The plates were then read in a PerkinElmer Topcount plate reader to measure the quantity of ^3H-labeled peptide bound to the Flashplate surface measured as disintegrations per minute (dpm), also referred to as counts per minute (cpm).
The IC50 values were calculated using a 4-parameter variable slope fit algorithm (cpm—counts per minute, cmpd—signal in assay well, and cpmmax and cpmmin mare the respective minimum and maximum signal controls).

T1 sequence (O14744 whole entry): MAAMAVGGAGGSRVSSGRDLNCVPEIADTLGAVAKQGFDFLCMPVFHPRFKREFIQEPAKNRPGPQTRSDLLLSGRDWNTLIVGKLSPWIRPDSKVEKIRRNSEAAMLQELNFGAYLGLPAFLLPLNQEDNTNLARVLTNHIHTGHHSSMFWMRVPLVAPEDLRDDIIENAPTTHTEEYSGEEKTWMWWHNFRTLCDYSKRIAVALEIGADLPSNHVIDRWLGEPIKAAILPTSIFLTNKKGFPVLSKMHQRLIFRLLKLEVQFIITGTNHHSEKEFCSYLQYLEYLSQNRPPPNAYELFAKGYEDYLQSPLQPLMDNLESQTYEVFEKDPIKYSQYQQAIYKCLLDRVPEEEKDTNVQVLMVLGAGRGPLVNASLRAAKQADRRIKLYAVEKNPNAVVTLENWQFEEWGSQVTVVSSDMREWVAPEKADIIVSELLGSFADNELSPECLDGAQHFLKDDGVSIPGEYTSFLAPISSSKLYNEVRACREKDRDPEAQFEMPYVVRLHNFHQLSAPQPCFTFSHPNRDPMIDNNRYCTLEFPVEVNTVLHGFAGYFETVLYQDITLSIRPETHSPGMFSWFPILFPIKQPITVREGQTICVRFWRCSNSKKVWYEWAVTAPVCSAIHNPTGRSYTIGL
T1 sequence (Q9BQA1 whole entry partner): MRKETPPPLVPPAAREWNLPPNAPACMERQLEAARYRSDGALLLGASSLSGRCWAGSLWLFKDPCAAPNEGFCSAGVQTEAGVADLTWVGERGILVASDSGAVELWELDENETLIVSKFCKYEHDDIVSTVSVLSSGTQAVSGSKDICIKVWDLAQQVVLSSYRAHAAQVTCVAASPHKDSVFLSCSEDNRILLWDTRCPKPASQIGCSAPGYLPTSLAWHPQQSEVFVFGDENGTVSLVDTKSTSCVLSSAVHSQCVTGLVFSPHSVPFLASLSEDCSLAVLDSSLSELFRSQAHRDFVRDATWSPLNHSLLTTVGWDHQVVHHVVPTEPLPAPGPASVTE

Row | Structure (SMILES) | IC50 [2] [nM] | GI50 [1] [nM]
1 | O=C(NC[C@H](O)CN1CCc2ccccc2C1)c1cn2cc(-c3cnn(C4COC4)c3)ccc2n1 [Example 22, (S)—N-(3-(3,4-dihydroisoquinolin-2(1H)-yl)-2-hydroxypropyl)-6-(1-(oxetan-3-yl)-1H-pyrazol-4-yl)imidazo[1,2-a]pyridine-2-carboxamide] | 10 to 1000 | 10 to 1000
2 | CC(C)c1nc(-c2ccc3nc(C(=O)NC[C@H](O)CN4CCc5ccccc5C4)cn3c2)no1 [Example 24, (S)—N-(3-(3,4-dihydroisoquinolin-2(1H)-yl)-2-hydroxypropyl)-6-(5-isopropyl-1,2,4-oxadiazol-3-yl)imidazo[1,2-a]pyridine-2-carboxamide] | 10 to 1000 | 10 to 1000
3 | O=C(NC[C@H](O)CN1CCc2ccccc2C1)c1cn2cc(-c3noc(C4CC4)n3)ccc2n1 [Example 25, (S)-6-(5-cyclopropyl-1,2,4-oxadiazol-3-yl)-N-(3-(3,4-dihydroisoquinolin-2(1H)-yl)-2-hydroxypropyl)imidazo[1,2-a]pyridine-2-carboxamide] | 10 to 1000 | 10 to 1000
4 | O=C(NC[C@H](O)CN1CCc2ccccc2C1)c1cn2cc(C3CCOCC3)ccc2n1 [Example 26, (S)—N-(3-(3,4-dihydroisoquinolin-2(1H)-yl)-2-hydroxypropyl)-6-(tetrahydro-2H-pyran-4-yl)imidazo[1,2-a]pyridine-2-carboxamide] | 10 to 1000 | 10 to 1000
5 | CC(=O)N1CCC(c2ccc3nc(C(=O)NC[C@H](O)CN4CCc5ccccc5C4)cn3c2)CC1 [Example 27, (S)-6-(1-acetylpiperidin-4-yl)-N-(3-(3,4-dihydroisoquinolin-2(1H)-yl)-2-hydroxypropyl)imidazo[1,2-a]pyridine-2-carboxamide] | 10 to 1000 | 10 to 1000
6 | Cc1ncc(-c2ccc3nc(C(=O)NC[C@H](O)CN4CCc5ccccc5C4)cn3c2)cn1 [Example 28, (S)—N-(3-(3,4-dihydroisoquinolin-2(1H)-yl)-2-hydroxypropyl)-6-(2-methylpyrimidin-5-yl)imidazo[1,2-a]pyridine-2-carboxamide] | 10 to 1000 | 10 to 1000
7 | Cc1ccc(-c2ccc3nc(C(=O)NC[C@H](O)CN4CCc5ccccc5C4)cn3c2)cn1 [Example 29, (S)—N-(3-(3,4-dihydroisoquinolin-2(1H)-yl)-2-hydroxypropyl)-6-(6-methylpyridin-3-yl)imidazo[1,2-a]pyridine-2-carboxamide] | 10 to 1000 | 10 to 1000
8 | Cc1ccc(-c2ccc3nc(C(=O)NC[C@H](O)CN4CCc5ccccc5C4)cn3c2)nn1 [Example 30, (S)—N-(3-(3,4-dihydroisoquinolin-2(1H)-yl)-2-hydroxypropyl)-6-(6-methylpyridazin-3-yl)imidazo[1,2-a]pyridine-2-carboxamide] | 10 to 1000 | 10 to 1000
9 | Cc1ncc(-c2ccc3nc(C(=O)NC[C@H](O)CN4CCc5ccccc5C4)cn3c2)s1 [Example 31, (S)—N-(3-(3,4-dihydroisoquinolin-2(1H)-yl)-2-hydroxypropyl)-6-(2-methylthiazol-5-yl)imidazo[1,2-a]pyridine-2-carboxamide] | 10 to 1000 | 10 to 1000
10 | Cc1nc(-c2ccc3nc(C(=O)NC[C@H](O)CN4CCc5ccccc5C4)cn3c2)sc1C [Example 32, (S)—N-(3-(3,4-dihydroisoquinolin-2(1H)-yl)-2-hydroxypropyl)-6-(4,5-dimethylthiazol-2-yl)imidazo[1,2-a]pyridine-2-carboxamide] | 10 to 1000 | 10 to 1000
11 | O=C(NC[C@H](O)CN1CCc2ccccc2C1)c1cn2cc(-c3ccc(Cl)cn3)ccc2n1 [Example 33, (S)-6-(5-chloropyridin-2-yl)-N-(3-(3,4-dihydroisoquinolin-2(1H)-yl)-2-hydroxypropyl)imidazo[1,2-a]pyridine-2-carboxamide] | 10 to 1000 | 10 to 1000
12 | Cn1cc(-c2ccc3nc(C(=O)NC[C@H](O)CN4CCc5ccccc5C4)cn3c2)ccc1=O [Example 34, (S)—N-(3-(3,4-dihydroisoquinolin-2(1H)-yl)-2-hydroxypropyl)-6-(1-methyl-6-oxo-1,6-dihydropyridin-3-yl)imidazo[1,2-a]pyridine-2-carboxamide] | 10 to 1000 | 10 to 1000
13 | Cn1ccc(-c2ccc3nc(C(=O)NC[C@H](O)CN4CCc5ccccc5C4)cn3c2)cc1=O [Example 35, (S)—N-(3-(3,4-dihydroisoquinolin-2(1H)-yl)-2-hydroxypropyl)-6-(1-methyl-2-oxo-1,2-dihydropyridin-4-yl)imidazo[1,2-a]pyridine-2-carboxamide] | 10 to 1000 | 10 to 1000
14 | CC(C)n1cc(-c2ccc3nc(C(=O)NC[C@H](O)CN4CCc5ccccc5C4)cn3c2)nn1 [Example 37, (S)—N-(3-(3,4-dihydroisoquinolin-2(1H)-yl)-2-hydroxypropyl)-6-(1-isopropyl-1H-1,2,3-triazol-4-yl)imidazo[1,2-a]pyridine-2-carboxamide] | 10 to 1000 | 10 to 1000
15 | CNC(=O)c1ccc2nc(C(=O)NC[C@H](O)CN3CCc4ccccc4C3)cn2c1 [Example 38, (S)—N2-(3-(3,4-dihydroisoquinolin-2(1H)-yl)-2-hydroxypropyl)-N6-methylimidazo[1,2-a]pyridine-2,6-dicarboxamide] | 10 to 1000 | 10 to 1000
16 | NS(=O)(=O)c1ccc2nc(C(=O)NC[C@H](O)CN3CCc4ccccc4C3)cn2c1 [Example 40, (S)—N-(3-(3,4-dihydroisoquinolin-2(1H)-yl)-2-hydroxypropyl)-6-sulfamoylimidazo[1,2-a]pyridine-2-carboxamide] | 1000 to 5000 | > 5000

More lines, main results first:

Row | IC50 [2] [nM] | Structure (SMILES) | GI50 [1] [nM]
17 | 10 to 1000 | CC(=O)N1CCC(C2CCc3nc(C(=O)NC[C@H](O)CN4CCc5ccccc5C4)cn3C2)CC1 (single isomer, unassigned) [Example 118A] | 10 to 1000
18 | 10 to 1000 | Cn1ccc(-c2cnc3nc(C(=O)NC[C@H](O)CN4CCc5ccccc5C4)cn3c2)cc1=O [Example 44, (S)—N-(3-(3,4-dihydroisoquinolin-2(1H)-yl)-2-hydroxypropyl)-6-(1-methyl-2-oxo-1,2-dihydropyridin-4-yl)imidazo[1,2-a]pyrimidine-2-carboxamide] | 10 to 1000
19 | 10 to 1000 | Cn1cc(-c2ccc3nc(C(=O)NC[C@H](O)CN4CCc5ccccc5C4)cn3n2)cn1 [Example 46, (S)—N-(3-(3,4-dihydroisoquinolin-2(1H)-yl)-2-hydroxypropyl)-6-(1-methyl-1H-pyrazol-4-yl)imidazo[1,2-b]pyridazine-2-carboxamide] | 10 to 1000
20 | 10 to 1000 | CC(=O)N1CCC(c2ccc3nc(C(=O)NC[C@H](O)CN4CCc5ccccc5C4)cn3n2)CC1 [Example 49, (S)-6-(1-acetylpiperidin-4-yl)-N-(3-(3,4-dihydroisoquinolin-2(1H)-yl)-2-hydroxypropyl)imidazo[1,2-b]pyridazine-2-carboxamide] | 10 to 1000
21 | 1000 to 5000 | O=C(NC[C@H](O)CN1CCc2ccccc2C1)c1cn2nc(C(F)(F)F)ccc2n1 [Example 50, (S)—N-(3-(3,4-dihydroisoquinolin-2(1H)-yl)-2-hydroxypropyl)-6-(trifluoromethyl)imidazo[1,2-b]pyridazine-2-carboxamide] | 1000 to 5000
22 | 10 to 1000 | Cn1cc(-c2cn3cc(C(=O)NC[C@H](O)CN4CCc5ccccc5C4)nc3cn2)ccc1=O [Example 51, (S)—N-(3-(3,4-dihydroisoquinolin-2(1H)-yl)-2-hydroxypropyl)-6-(1-methyl-6-oxo-1,6-dihydropyridin-3-yl)imidazo[1,2-a]pyrazine-2-carboxamide] | 10 to 1000
23 | 10 to 1000 | CC(=O)N1CCC(c2cn3cc(C(=O)NC[C@H](O)CN4CCc5ccccc5C4)nc3cn2)CC1 [Example 52, (S)-6-(1-acetylpiperidin-4-yl)-N-(3-(3,4-dihydroisoquinolin-2(1H)-yl)-2-hydroxypropyl)imidazo[1,2-a]pyrazine-2-carboxamide] | 10 to 1000
24 | 10 to 1000 | O=C(NC[C@H](O)CN1CCc2ccccc2C1)c1cn2cc(C(F)(F)F)ncc2n1 [Example 53, (S)—N-(3-(3,4-dihydroisoquinolin-2(1H)-yl)-2-hydroxypropyl)-6-(trifluoromethyl)imidazo[1,2-a]pyrazine-2-carboxamide] | 1000 to 5000
